Source: patent publication US7687490B2, “2-thioethenyl substituted carbapenem derivatives” (Meiji Seika Kaisha, Ltd., priority 2005, dated 2010)
Converted amounts (≈) assume the structure as drawn.

Key:
Test in all cases: Antimicrobial activity, MIC (Test Example 1)
Format in all cases: cell-based
[1] = tested on: S. aureus 209P JC-1; details: Sensitivity Disk agar-N+5% Horse blood, inoculants 10^6 CFU/ml; for MIC: Staphylococcus aureus, read-out: minimum inhibitory concentrations (MIC)
Protocol: (§1) The minimum inhibitory concentrations (MIC, μg/ml) of representative compounds, among the novel carbapenem derivatives of the present invention, to various pathogenic bacteria were measured in accordance with the method described in CHEMOTHERAPY, vol. 16, No. 1, 99, 1968. The culture medium for the measurement is Sensitivity Disk agar-N+5% Horse blood, and the amount of inoculants used is 10^6 CFU/ml.

[2] = tested on: H. influenzae PRC44; details: Sensitivity Disk agar-N+5% Horse blood, inoculants 10^6 CFU/ml; for MIC: Haemophilus influenzae, read-out: minimum inhibitory concentrations (MIC)
Protocol: as §1

[3] = tested on: H. influenzae Rd; details: Sensitivity Disk agar-N+5% Horse blood, inoculants 10^6 CFU/ml; for MIC: Haemophilus influenzae, read-out: minimum inhibitory concentrations (MIC)
Protocol: as §1

[4] = tested on: K. pneumoniae GN69; details: Sensitivity Disk agar-N+5% Horse blood, inoculants 10^6 CFU/ml; for MIC: Klebsiella pneumoniae, read-out: minimum inhibitory concentrations (MIC)
Protocol: as §1

[5] = tested on: H. influenzae 870; details: Sensitivity Disk agar-N+5% Horse blood, inoculants 10^6 CFU/ml; for MIC: Haemophilus influenzae, read-out: minimum inhibitory concentrations (MIC)
Protocol: as §1

[6] = tested on: E. coli W4680; details: Sensitivity Disk agar-N+5% Horse blood, inoculants 10^6 CFU/ml; for MIC: Escherichia coli, read-out: minimum inhibitory concentrations (MIC)
Protocol: as §1

[7] = tested on: M. catarrhalis W-500; details: Moraxella catarrhalis, W500, Sensitivity Disk agar-N+5% Horse blood, inoculants 10^6 CFU/ml, read-out: minimum inhibitory concentrations (MIC)
Protocol: as §1

[8] = tested on: S. pneumoniae R6; details: Sensitivity Disk agar-N+5% Horse blood, inoculants 10^6 CFU/ml; for MIC: Streptococcus pneumoniae, read-out: minimum inhibitory concentrations (MIC)
Protocol: as §1

[9] = tested on: S. pneumoniae 197; details: Streptococcus pneumoniae, Sensitivity Disk agar-N+5% Horse blood, inoculants 10^6 CFU/ml, read-out: minimum inhibitory concentrations (MIC)
Protocol: as §1

[10] = tested on: S. pneumoniae PRC53; details: Sensitivity Disk agar-N+5% Horse blood, inoculants 10^6 CFU/ml; for MIC: Streptococcus pneumoniae, read-out: minimum inhibitory concentrations (MIC)
Protocol: as §1

Row | Compound | MIC [1] [µg/mL] | MIC [2] [µg/mL] | MIC [3] [µg/mL] | MIC [4] [µg/mL] | MIC [5] [µg/mL] | MIC [6] [µg/mL] | MIC [7] [µg/mL] | MIC [8] [µg/mL] | MIC [9] [µg/mL] | MIC [10] [µg/mL] | minimum inhibitory concentrations (MIC) [1] [µg/mL] | minimum inhibitory concentrations (MIC) [2] [µg/mL] | minimum inhibitory concentrations (MIC) [3] [µg/mL] | minimum inhibitory concentrations (MIC) [4] [µg/mL] | minimum inhibitory concentrations (MIC) [5] [µg/mL] | minimum inhibitory concentrations (MIC) [6] [µg/mL] | minimum inhibitory concentrations (MIC) [8] [µg/mL] | minimum inhibitory concentrations (MIC) [10] [µg/mL]
1 | C[C@@H](O)[C@H]1C(=O)N2C(C(=O)[O-])=C(S/C=C\c3scnc3CO)[C@H](C)[C@H]12.[Na+] [Example 41, Sodium (1R,5S,6S)-6-((1R)-1-hydroxyethyl)-2-[[(Z)-2-(4-hydroxymethylthiazol-5-yl)ethen-1-yl]thio]-1-methyl-1-carbapen-2-em-3-carboxylate] | 0.031 | 0.125 | 0.031 | 0.5 | 0.125 | 1 | 0.063 | 0.008 | 0.125 | 0.063 | – | – | – | – | – | – | – | –
2 | C[C@@H](O)[C@H]1C(=O)N2C(C(=O)[O-])=C(S/C=C\c3scnc3C(=O)N(C)C)[C@H](C)[C@H]12.[Na+] [Example 43, Sodium (1R,5S,6S)-2-[[(Z)-2-(4-N,N-dimethylcarbamoylthiazol-5-yl)ethen-1-yl]thio]-6-((1R)-1-hydroxyethyl)-1-methyl-1-carbapen-2-em-3-carboxylate] | – | – | – | – | – | – | – | – | – | – | 0.063 | 0.125 | 0.031 | 4 | 0.25 | 4 | 0.008 | 0.063
3 | C[C@@H](O)[C@H]1C(=O)N2C(C(=O)[O-])=C(S/C=C\c3nc(CO)cs3)[C@H](C)[C@H]12.[Na+] [Example 44, Sodium (1R,5S,6S)-6-((1R)-1-hydroxyethyl)-2-[[(Z)-2-(4-hydroxymethylthiazol-2-yl)ethen-1-yl]thio]-1-methyl-1-carbapen-2-em-3-carboxylate] | 0.031 | 0.063 | 0.031 | 4 | 0.125 | 4 | 0.063 | 0.008 | 0.25 | 0.063 | – | – | – | – | – | – | – | –
4 | C[C@@H](O)[C@H]1C(=O)N2C(C(=O)[O-])=C(S/C=C/c3scnc3CO)[C@H](C)[C@H]12.[Na+] [Example 61, Sodium (1R,5S,6S)-6-((1R)-1-hydroxyethyl)-2-[[(E)-2-(4-hydroxymethylthiazol-5-yl)ethen-1-yl]thio]-1-methyl-1-carbapen-2-em-3-carboxylate] | 0.063 | 0.125 | 0.031 | 8 | 0.125 | 8 | 0.063 | 0.031 | 1 | 0.25 | – | – | – | – | – | – | – | –
5 | C[C@@H](O)[C@H]1C(=O)N2C(C(=O)[O-])=C(S/C=C\c3ncsc3CO)[C@H](C)[C@H]12.[Na+] [Example 78, Sodium (1R,5S,6S)-6-((1R)-1-hydroxyethyl)-2-[[(Z)-2-(5-hydroxymethylthiazol-4-yl)ethen-1-yl]thio]-1-methyl-1-carbapen-2-em-3-carboxylate] | 0.031 | 0.063 | 0.031 | 8 | 0.125 | 8 | 0.25 | 0.008 | 0.25 | 0.063 | – | – | – | – | – | – | – | –
6 | C[C@@H](O)[C@H]1C(=O)N2C(C(=O)O)=C(SCCN=CN)C[C@H]12 [IPM, imipenem, reference compound] | 0.016 (≈ 0.0534 µM) | 16 (≈ 53.4 µM) | 1 (≈ 3.34 µM) | 0.125 (≈ 0.418 µM) | 4 (≈ 13.4 µM) | 0.125 (≈ 0.418 µM) | 0.063 (≈ 0.21 µM) | 0.008 (≈ 0.0267 µM) | 1 (≈ 3.34 µM) | 0.125 (≈ 0.418 µM) | – | – | – | – | – | – | – | –
